The source of these data is patent US7598234B2, “Steroid derived antibiotics” (Brigham Young University, priority 1998, dated 2009).

One assay has as its system E. coli (ATCC 25922). Nature of the assay: MIC and MBC measurement with E. coli (ATCC 25922). In kind it is cell-based, Escherichia coli. The conditions noted are these: Escherichia coli, ATCC25922, E. coli (ATCC 25922); starting MIC in sensitization tests; read-out: MIC of erythromycin alone. The text has this:
(§1) General: Microorganisms. Reference strains were purchased from the American Type Culture Collection (Rockville, Md.) or Bactrol disks from Difeo Laboratories (Detroit, Mich.). The following specific ATCC strains were used: 10798 Escherichia coli, 25922 Escherichia coli, 13883 Klebsiella pneumoniae, 27853 Pseudomonas aeruginosa, 14028 Salmonella typhimurium, 29212 Enterococcus faecalis, 25923 Staphylococcus aureus, 19615 Streptococcus pyogenes, and 90028 Candida albicans. Bacterial strains were maintained on Mueller-Hinton agar plates, and Candida albicans was maintained on Sabouraud Dextrose agar plates.
(§2) Tryptic soy broth (TSB) was made by dissolving 27.5 grams of tryptic soy broth without dextrose (DIFCO Laboratories) in 1 liter of deionized water and sterilizing at 121° C. for 15 minutes. Solid agar (TSA) plates were made by dissolving 6.4 grams of tryptic soy broth and 12 grams of agar (purified grade, Fischer Scientific) in 800 mL of deionized water and sterilizing at 121° C. for 20 minutes. Aliquots (20 mL) of the homogeneous solution were then poured in sterile plastic petri dishes (100×15 mm, Fisher Scientific). Solutions of compounds were made by dissolving the HCl salt of the respective compound into an appropriate amount of deionized and sterilized water followed by microfiltration.
(§3) Aliquots of 1 mL of the suspension were added to test tubes containing 1 mL TSB and incrementally varied concentrations of cholic acid derivatives and/or erythromycin or novobiocin. In the sensitization experiments, erythromycin or novobiocin were added 15 minutes later than the cholic acid derivatives. The samples were subjected to stationary incubation at 37° C. for 24 hours. Sample turbidity was determined by measuring absorption at 760 nm (HP 8453 UV-Visible Chemstation, Hewlett Packard). Additionally, an alliquot from each of the samples showing no measurable turbidity was subcultured on TSA plates (alliquots were diluted to provide fewer than 300 CFU). Colonies that grew on the subculture after overnight incubation were counted and the number of CFU/mL in the samples were calculated. The calculated values were compared to the number of CFU/mL in the original inoculum. […]

In assay [1] the test system is Pseudomonas aeruginosa (ATCC 27853). Nature of the assay: MIC and MBC measurement with Pseudomonas aeruginosa (ATCC 27853). As to conditions: P. aureginosa (ATCC 27853). The format is cell-based.
Description: as §1, §2
(§4) Aliquots of 1 mL of the suspension were added to test tubes containing 1 mL TSB and incrementally varied concentrations of cholic acid derivatives and/or erythromycin or novobiocin. In the sensitization experiments, erythromycin or novobiocin were added 15 minutes later than the cholic acid derivatives. The samples were subjected to stationary incubation at 37° C. for 24 hours. Sample turbidity was determined by measuring absorption at 760 nm (HP 8453 UV-Visible Chemstation, Hewlett Packard). Additionally, an alliquot from each of the samples showing no measurable turbidity was subcultured on TSA plates (alliquots were diluted to provide fewer than 300 CFU). Colonies that grew on the subculture after overnight incubation were counted and the number of CFU/mL in the samples were calculated. The calculated values were compared to the number of CFU/mL in the original inoculum.

Assay [2] has as its system E. coli (ATCC 10798). Nature of the assay: MIC and MBC measurement with E. coli (ATCC 10798). The format is cell-based, Escherichia coli.
Description: as §1, §2, §4

Assay [3] has as its system E. coli (ATCC 10798). In words: Sensitization to erythromycin (concentration lowering the MIC of erythromycin), E. coli (ATCC 10798). In kind it is cell-based, Escherichia coli. As to conditions: for MIC: concentration required to lower the MIC of erythromycin from 70 μg/mL to 1 μg/mL / MBC (with erythromycin): Table 2, E. coli (ATCC 10798); for MBC (with erythromycin): erythromycin sensitization; for (a) Concentration required to lower the MIC of erythromycin from 70 to 1 μg/mL / (b) MBC with 1 μg/mL erythromycin / FIC values with erythromycin: Table 9, Escherichia coli (ATCC 10798). How it is done: (§5) Alternatively, “fractional inhibitory concentration (FIC)” is also useful for determination of synergy between the compounds of the invention, or the compounds in combination with known antibiotics. FICs can be performed by checkerboard titrations of compounds in one dimension of a microtiter plate, and of antibiotics in the other dimension, for example. The FIC is calculated by looking at the impact of one antibiotic on the MIC of the other and vice versa. […] Preferably, an FIC of less than 0.5 is obtained for synergism. As used herein, FIC can be determined as follows:
as §4
(§6) Ability to permeabilize outer membrane: Compounds 11, 106, and 108-114 (FIG. 1) were tested for antibiotic activity. They were also tested for the ability to permeabilize the outer membrane of Gram-negative bacteria, causing sensitization to hydrophobic antibiotics that cannot cross the outer membrane. The permeabilization of the outer membrane was measured using erythromycin and novobiocin.
(§7) The MICs of erythromycin and novobiocin against E. coli (ATCC 10798) at 70 and >500 μg/mL were measured.

Assay [4] has as its system E. coli (ATCC 10798). Nature of the assay: Sensitization to novobiocin (concentration lowering the MIC of novobiocin), E. coli (ATCC 10798). The format is cell-based, Escherichia coli. Here is the method: as §5, §4, §6, §7
For assay [5], the system named is Pseudomonas aeruginosa (ATCC 27853). Nature of the assay: Sensitization to erythromycin, Pseudomonas aeruginosa (ATCC 27853). The conditions noted are these: Table 7; P. aureginosa (ATCC 27853). The format is cell-based. Here is the method:
as §5, §3
To measure permeabilization, the FIC values for compounds 1, 2, 5, 106, 10, 112, 133, and 134 with erythromycin, novobiocin, and rifampicin were determined. Concentrations of 0.5, 1.0 or 3.0 μg/mL of these antibiotics were used, and the concentrations of the cholic acid derivatives required to inhibit bacterial growth of Gram-negative strains were determined.

Where [6] appears, read: Table 9, Escherichia coli (ATCC 10798).

SMILES strings stand for the structures. In brackets after ≈: the same amount, converted by molar mass.

In general, MIC refers to the least concentration at which growth counts as inhibited. Turning to `CC[C@H]1OC(=O)[C@H](C)[C@@H](O[C@H]2C[C@@](C)(OC)[C@@H](O)[C@H](C)O2)[C@H](C)[C@@H](O[C@@H]2O[C@H](C)C[C@H](N(C)C)[C@H]2O)[C@](C)(O)C[C@@H](C)C(=O)[C@H](C)[C@@H](O)[C@]1(C)O` [erythromycin, reference compound], the MIC in the assay on E. coli (ATCC 25922) was determined as 36 µg/mL. The “MIC of the antibiotic alone” value in assay [1] (starting MIC in sensitization tests) is 240 μg/mL to 5 μg/mL with P. aureginosa (ATCC 27853).
The term MBC denotes the lowest tested concentration that kills the bacteria rather than only halting them. Read a low MBC as greater bactericidal potency. Take `C[C@H](CCCOCCC[C@@H](C)[C@H]1CC[C@H]2[C@@H]3[C@H](OCCCN)C[C@@H]4C[C@H](OCCCN)CC[C@]4(C)[C@H]3C[C@H](OCCCN)[C@]12C)[C@H]1CC[C@H]2[C@@H]3[C@H](OCCCN)C[C@@H]4C[C@H](OCCCN)CC[C@]4(C)[C@H]3C[C@H](OCCCN)[C@]12C` [Compound 12]: in the assay with E. coli (ATCC 10798) [2] (Table 1, E. coli (ATCC 10798)), the MBC turned out to be 4 µg/mL (≈ 3.59 µM) and the MIC worked out at 4 µg/mL (≈ 3.59 µM). In the assay on E. coli (ATCC 10798) [3], the “MIC: concentration required to lower the MIC of erythromycin from 70 μg/mL to 1 μg/mL” value was found to be 1.5 µg/mL and the “MBC (with erythromycin)” value worked out at 2.5 µg/mL. Besides, the “MIC: concentration required to lower the MIC of novobiocin from >500 μg/mL to 1 μg/mL” value in the assay on E. coli (ATCC 10798) [4] (Table 3, E. coli (ATCC 10798)) was 2.5 µg/mL.
In the assay on E. coli (ATCC 10798) [2] (setting [6]), `CCCCCCCCOCCC[C@@H](C)[C@H]1CC[C@H]2[C@@H]3[C@H](OCCCN)C[C@@H]4C[C@H](OCCCN)CC[C@]4(C)[C@H]3C[C@H](OCCCN)[C@]12C` [Compound 114] came in with an MBC of 10 µg/mL (≈ 14.7 µM) and an MIC of 3.0 µg/mL (≈ 4.42 µM). Further, in the assay with E. coli (ATCC 10798) [3], the “(a) Concentration required to lower the MIC of erythromycin from 70 to 1 μg/mL” value is 3.0 µg/mL, the “(b) MBC with 1 μg/mL erythromycin” value was 3.0 µg/mL and the “FIC values with erythromycin” value worked out at 1.0.
On to `C[C@H](CO)[C@H]1CC[C@H]2[C@@H]3[C@H](OCCCN)C[C@@H]4C[C@H](OCCCN)CC[C@]4(C)[C@H]3C[C@H](OCCCN)[C@]12C` [Compound 108], for which the “FIC values with erythromycin” value in the assay on E. coli (ATCC 10798) [3] stood at 0.071. In the assay on E. coli (ATCC 10798) [4] (setting [6]), the “FIC values with novobiocin” value is reported as 0.17.
In the assay with E. coli (ATCC 10798) [2] (Table 1, E. coli (ATCC 10798)), `CC(O)[C@H]1CC[C@H]2[C@@H]3[C@H](OCCCN)C[C@@H]4C[C@H](OCCCN)CC[C@]4(C)[C@H]3C[C@H](OCCCN)[C@]12C` (stereo partly drawn) [Compound 11] gave an MBC of over 160 µg/mL and an MIC of 140 µg/mL (≈ 267 µM). In the assay with E. coli (ATCC 10798) [2] (setting [6]), this compound yielded an MBC of over 160 µg/mL and an MIC of 140 µg/mL (≈ 267 µM). Besides, in the assay with E. coli (ATCC 10798) [3], the “MIC: concentration required to lower the MIC of erythromycin from 70 μg/mL to 1 μg/mL” value was 40 µg/mL, the “MBC (with erythromycin)” value is over 160 µg/mL, the “(a) Concentration required to lower the MIC of erythromycin from 70 to 1 μg/mL” value amounted to 20 µg/mL and the “(b) MBC with 1 μg/mL erythromycin” value was 180 µg/mL. Moreover, the “FIC values with erythromycin” value in the assay with E. coli (ATCC 10798) [3] worked out at 0.16. Moreover, the “MIC: concentration required to lower the MIC of novobiocin from >500 μg/mL to 1 μg/mL” value in the assay with E. coli (ATCC 10798) [4] (Table 3, E. coli (ATCC 10798)) worked out at 40 µg/mL. Moreover, in the assay on E. coli (ATCC 10798) [4] (Table 3, E. coli (ATCC 10798), novobiocin sensitization), the “MBC (with novobiocin)” value was found to be 140 µg/mL. Moreover, in the assay on E. coli (ATCC 10798) [4] (setting [6]), the “(d) Concentration required to lower the MIC of novobiocin from >500 to 1 μg/mL” value is 40 µg/mL and the “FIC values with novobiocin” value is recorded as 0.29.
`C[C@H](CCCN)[C@H]1CC[C@H]2[C@@H]3[C@H](OCCCN)C[C@@H]4C[C@H](OCCCN)CC[C@]4(C)[C@H]3C[C@H](OCCCN)[C@]12C` [Compound 135]: in the assay with E. coli (ATCC 10798) [2] (FIG. 5, strain not named), the “MBC (in words)” value was “relatively high” and the “MIC (in words)” value is “relatively high”.
On to `C[C@H](CCCN(C)Cc1ccccc1)[C@H]1CC[C@H]2[C@@H]3[C@H](OCCCCN)C[C@@H]4C[C@H](OCCCCN)CC[C@]4(C)[C@H]3C[C@H](OCCCCN)[C@]12C` [Compound 3], for which the minimum inhibitory concentration (MIC) came to 6 µg/mL (≈ 8.44 µM) in the assay with E. coli (ATCC 10798) [2] (Table 1, E. coli (ATCC 10798)) and 16 µg/mL (≈ 22.5 µM) in assay [1] (Table 6). Besides, the “MIC: concentration required to lower the MIC of erythromycin from 70 μg/mL to 1 μg/mL” value in the assay on E. coli (ATCC 10798) [3] was found to be 1.5 µg/mL. Moreover, the “MIC: concentration required to lower the MIC of erythromycin from 240 μg/mL to 5 μg/mL” value in assay [5] was found to be 6 µg/mL.
